Common to all, as to format: cell-based
Assay [1] deals with human Burkitt's lymphoma cell line Namalwa. Description: Caspase cascade activation (EC50), Namalwa. To be noted: Homo sapiens, Burkitts lymphoma cell; Namalwa cells; caspase cascade activation; read-out: caspase potency (EC50) Namalwa. Put shortly:
(§1)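 Fluorogenic DEVD-R110 cleavage at 485/530 nm gives the read-out, taken 3 h after substrate addition and corrected by the control's T=0 background. Compound-treated over control net RFU ratio was fitted sigmoidally for EC50. Cells had been treated 48 h at 0.016 to 10 μM final.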

Assay [2] has as its system human breast cancer cell line T-47D. Description: Caspase cascade activation (EC50), T-47D. To be noted: Homo sapiens; T47D cells; caspase cascade activation; read-out: caspase potency (EC50) T47D. The gist of the method:
as §1

Assay [3] has as its system human cancer cell line H1299. Kind of assay: Caspase cascade activation (EC50), H1299. To be noted: NCI-H1299, H1299 cells, read-out: caspase potency (EC50) H1299. Here is the method:
(§2) Human breast cancer cell lines T-47D, human hepatocellular carcinoma cell line SNU398, human colon carcinoma cell line HCT116, human cancer cell line H1299, human Burkitt's lymphoma cell line Namalwa, human lymphoma cell line Raji, and human B cell lymphoblastoid cell line Ramos were grown according to media component mixtures designated by American Type Culture Collection+10% FCS (Invitrogen Corporation), in a 5% CO2-95% humidity incubator at 37° C. T-47D and H1299 cells were maintained at a cell density between 50 and 80% confluency at a cell density of 0.1 to 0.6×10^6 cells/mL. Cells were harvested at 600×g and resuspended at 0.65×10^6 cells/mL into appropriate media+10% FCS. An aliquot of 22.5 μL of cells was added to a well of a 384-well microtiter plate containing 2.5 μL of a 10% DMSO in RPMI-1640 media solution containing 0.16 to 100 μM of 3-(2-chlorophenyl)-6-(3,4-methylenedioxyphenyl)-7H-[1,2,4]triazolo[3,4-b][1,3,4]thiadiazine or other test compound (0.016 to 10 μM final). An aliquot of 22.5 μL of cells was added to a well of a 384-well microtiter plate containing 2.5 μL of a 10% DMSO in RPMI-1640 media solution without test compound as the control sample. The samples were mixed by agitation and then incubated at 37° C. for 48 h in a 5% CO2-95% humidity incubator. After incubation, the samples were removed from the incubator and 25 μL of a solution containing 14 μM of N—(Ac-DEVD)-N′-ethoxycarbonyl-R110 (SEQ ID No.:1) fluorogenic substrate (Cytovia, Inc.; WO99/18856), 20% sucrose (Sigma), 20 mM DTT (Sigma), 200 mM NaCl (Sigma), 40 mM Na PIPES buffer pH 7.2 (Sigma), and 500 μg/mL lysolecithin (Calbiochem) was added. The samples were mixed by agitation and incubated at room temperature. Using a fluorescent plate reader (Model SPECTRAfluor Plus, Tecan), an initial reading (T=0) was made approximately 1-2 min after addition of the substrate solution, employing excitation at 485 nm and emission at 530 nm, to determine the background fluorescence of the control sample. After the 3 h incubation, the samples were read for fluorescence as above (T=3 h). Calculation: The Relative Fluorescence Unit values (RFU) were used to calculate the sample readings as follows: RFU(T=3H)−Control RFU(T=0)=Net RFU(T=3h) The activity of caspase cascade activation was determined by the ratio of the net RFU value for 3-(2-chlorophenyl)-6-(3,4-methylenedioxyphenyl)-7H-[1,2,4]triazolo[3,4-b][1,3,4]thiadiazine (Example P) or other test compound to that of control samples. The EC50 (nM) was determined by a sigmoidal dose-response calculation (Prism 3.0, GraphPad Software Inc.).

For assay [4], the system named is human hepatocellular carcinoma cell line SNU398. Kind of assay: Caspase cascade activation (EC50), SNU398. To be noted: Homo sapiens, SNU-398; SNU398 cells; caspase cascade activation; read-out: caspase potency (EC50) SNU398. The gist of the method:
as §1

The subject of assay [5] is human B cell lymphoblastoid cell line Ramos. Description: Caspase cascade activation (EC50), Ramos. Particulars: Homo sapiens, RAMOS cells, read-out: caspase potency (EC50) RAMOS. The protocol:
as §2

Assay [6] concerns human colon carcinoma cell line HCT116. Description: Caspase cascade activation (EC50), HCT116. To be noted: Homo sapiens, HCT-116; HCT116 cells; caspase cascade activation; read-out: caspase potency (EC50) HCT116. Put shortly: as §1
Assay [7] deals with human lymphoma cell line Raji. Description: Caspase cascade activation (EC50), Raji. Particulars: Homo sapiens, RAJI cells, read-out: caspase potency (EC50) RAJI. The protocol:
as §2

As to `CC(C)Oc1cccc(-c2nnc3n2N=C(c2ccc4c(c2)OCO4)CS3)c1` [Example R1, 3-(3-Isopropyloxyphenyl)-6-(3,4-methylenedioxyphenyl)-7H-[1,2,4]triazolo[3,4-b][1,3,4]thiadiazine], the concentration giving a half-maximal response (EC50) was greater than 1 µM in assay [1]; greater than 10 µM in assay [2]; greater than 10 µM in assay [3]; 5.6 µM in assay [4]; greater than 1 µM in assay [5]; greater than 10 µM in assay [6]. Further, the half-maximal effective concentration (EC50) in assay [7] is greater than 1 µM.

Turning to `CCOc1ccc(-c2nnc3n2N=C(c2ccc4c(c2)OCO4)CS3)cc1` [Example H2, 3-(4-Ethoxyphenyl)-6-(3,4-methylenedioxyphenyl)-7H-[1,2,4]triazolo[3,4-b][1,3,4]thiadiazine], the concentration giving a half-maximal response (EC50) in assay [1] is greater than 1 µM; in assay [2] it was greater than 1 µM; in assay [3], greater than 1 µM; in assay [4], greater than 1 µM; in assay [5], 0.542 µM; in assay [6], greater than 1 µM. In addition, the 50% effective concentration (EC50) in assay [7] is greater than 1 µM.

On to `CCOc1ccc(C2=Nn3c(nnc3-c3cc(OC)c(OC)c(OC)c3)SC2)cc1` [Example T1, 3-(3,4,5-Trimethoxyphenyl)-6-(4-ethoxyphenyl)-7H-[1,2,4]triazolo[3,4-b][1,3,4]thiadiazine], for which the EC50 is 0.51 µM in assay [1]; 2.58 µM in assay [2]; 2.58 µM in assay [3]; 0.519 µM in assay [4]; 0.498 µM in assay [5]; greater than 10 µM in assay [6]. Besides, the EC50 in assay [7] amounted to 0.656 µM.

With `COc1ccc(-c2nnc3n2N=C(c2ccc4c(c2)OCO4)CS3)cc1` [J, 3-(4-Methoxyphenyl)-6-(3,4-methylenedioxyphenyl)-7H-[1,2,4]triazolo[3,4-b][1,3,4]thiadiazine], the concentration giving a half-maximal response (EC50) in assay [1] is greater than 10 µM; in assay [2], 3.27 µM; in assay [3], 2.93 µM; in assay [4], 2.55 µM; in assay [5], greater than 1 µM; in assay [6], greater than 10 µM. In addition, the half-maximal effective concentration (EC50) in assay [7] is greater than 1 µM.

For the molecule `Clc1ccc(-c2nnc3n2N=C(c2ccc4c(c2)OCO4)CS3)c(Cl)c1` [Example I1, 3-(2,4-Dichlorophenyl)-6-(3,4-methylenedioxyphenyl)-7H-[1,2,4]triazolo[3,4-b][1,3,4]thiadiazine], the EC50 amounted to 0.221 µM in assay [1]; 0.278 µM in assay [2]; 1.38 µM in assay [3]; 0.172 µM in assay [4]; 0.15 µM in assay [5]; 0.254 µM in assay [6]. Besides, the half-maximal effective concentration (EC50) in assay [7] worked out at 0.171 µM.

For `COc1ccc(-c2nnc3n2N=C(c2cc(OC)ccc2OC)CS3)cc1` [H, 3-(4-Methoxyphenyl)-6-(2,5-dimethoxyphenyl)-7H-[1,2,4]triazolo[3,4-b][1,3,4]thiadiazine], the EC50 in assay [1] is 1.18 µM; in assay [2], 2.44 µM; in assay [3], 2.43 µM; in assay [4], 1.23 µM; in assay [5] it was 1.27 µM; in assay [6], greater than 10 µM. Besides, the EC50 in assay [7] came out at 2.33 µM.

As for `COc1cc(-c2nnc3n2N=C(c2ccccc2)CS3)cc(OC)c1OC` [Example S1, 3-(3,4,5-Trimethoxyphenyl)-6-phenyl-7H-[1,2,4]triazolo[3,4-b][1,3,4]thiadiazine], the EC50 amounted to 0.313 µM in assay [1]; 0.323 µM in assay [2]; 1.26 µM in assay [3]; 0.226 µM in assay [4]; 0.316 µM in assay [5]; 0.284 µM in assay [6]. In addition, the EC50 in assay [7] came out at 0.619 µM.

Turning to `CCOc1ccc(C2=Nn3c(nnc3-c3ccccc3OC)SC2)cc1` [Example B2, 3-(2-Methoxyphenyl)-6-(4-ethoxyphenyl)-7H-[1,2,4]triazolo[3,4-b][1,3,4]thiadiazine], the EC50 in assay [1] amounted to 0.106 µM; in assay [2] it was 0.175 µM; in assay [3], 0.106 µM; in assay [4] it was 0.03 µM; in assay [6], 0.04 µM.

In the case of `Clc1cccc(-c2nnc3n2N=C(c2ccc4c(c2)OCO4)CS3)c1` [S, 3-(3-Chlorophenyl)-6-(3,4-methylenedioxyphenyl)-7H-[1,2,4]triazolo[3,4-b][1,3,4]thiadiazine], the half-maximal effective concentration (EC50) in assay [1] is greater than 10 µM; in assay [2], greater than 10 µM; in assay [3] it was greater than 10 µM; in assay [4], 1.63 µM; in assay [5], greater than 1 µM; in assay [6], greater than 10 µM. Also, in assay [7], the EC50 was greater than 1 µM.

For `COc1cccc(-c2nnc3n2N=C(c2ccc4c(c2)OCO4)CS3)c1` [Example A1, 3-(3-Methoxyphenyl)-6-(3,4-methylenedioxyphenyl)-7H-[1,2,4]triazolo[3,4-b][1,3,4]thiadiazine], the concentration for a half-maximal effect (EC50) is 0.426 µM in assay [1]; 0.5 µM in assay [2]; 2.49 µM in assay [3]; 0.39 µM in assay [4]; 0.447 µM in assay [5]; 0.546 µM in assay [6]. Also, the EC50 in assay [7] is 0.507 µM.

With `COc1cccc(-c2nnc3n2N=C(c2ccc(OC)c(OC)c2)CS3)c1` [Y, 3-(3-Methoxyphenyl)-6-(3,4-dimethoxyphenyl)-7H-[1,2,4]triazolo[3,4-b][1,3,4]thiadiazine], the half-maximal effective concentration (EC50) turned out to be 0.558 µM in assay [1]; 4.13 µM in assay [2]; 2.85 µM in assay [3]; 1.36 µM in assay [4]; 0.593 µM in assay [5]; 3.18 µM in assay [6]. Moreover, the half-maximal effective concentration (EC50) in assay [7] is 0.735 µM.

A word on the EC50: it is the midpoint of the concentration-response curve.

(Values after US20080045514A1 (Cytovia, Inc., priority 2006, published 2008).)
